What was measured:
[1] = Cytotoxicity against human 1321N1 cells assessed as reduction in cell viability at 50 uM incubated for 24 hrs by MTT assay relative to control; assay type: functional
[2] = Cytotoxicity against human HEK293 cells assessed as reduction in cell viability at 50 uM incubated for 24 hrs by MTT assay relative to control; assay type: toxicity, cell-based; settings: read-out: INH
[3] = tested on: HeLa; assay: Cytotoxicity against human HeLa cells assessed as reduction in cell viability at 50 uM incubated for 24 hrs by MTT assay relative to control; assay type: functional
[4] = molecular target: T1, P2X purinoceptor 5 (Homo sapiens, UniProt Q93086); assay: Antagonist activity at human P2X5 receptor expressed in human 1321N1 cells assessed as reduction in intracellular Ca2+ influx incubated for 30 mins by Fura-2 AM based fluorescence assay; assay type: cell-based
T1 sequence (Q93086 whole entry): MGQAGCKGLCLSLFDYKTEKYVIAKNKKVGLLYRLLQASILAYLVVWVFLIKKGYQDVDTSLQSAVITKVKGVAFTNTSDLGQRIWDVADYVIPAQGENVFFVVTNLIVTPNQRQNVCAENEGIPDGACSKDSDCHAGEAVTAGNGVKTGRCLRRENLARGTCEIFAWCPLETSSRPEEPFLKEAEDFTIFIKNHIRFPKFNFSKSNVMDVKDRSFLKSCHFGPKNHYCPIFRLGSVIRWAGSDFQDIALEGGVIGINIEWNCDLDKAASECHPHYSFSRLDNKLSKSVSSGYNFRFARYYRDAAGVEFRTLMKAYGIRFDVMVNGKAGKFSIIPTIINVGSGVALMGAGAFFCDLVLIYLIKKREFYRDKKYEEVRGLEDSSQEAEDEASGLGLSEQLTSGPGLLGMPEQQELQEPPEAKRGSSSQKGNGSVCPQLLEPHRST

[5] = molecular target: T2, P2X purinoceptor 2 (Homo sapiens) (UniProt Q9UBL9); assay: Antagonist activity at human P2X2 receptor expressed in human 1321N1 cells assessed as reduction in intracellular Ca2+ influx incubated for 30 mins by Fura-2 AM based fluorescence assay relative to control; assay type: cell-based
T2 sequence (whole entry): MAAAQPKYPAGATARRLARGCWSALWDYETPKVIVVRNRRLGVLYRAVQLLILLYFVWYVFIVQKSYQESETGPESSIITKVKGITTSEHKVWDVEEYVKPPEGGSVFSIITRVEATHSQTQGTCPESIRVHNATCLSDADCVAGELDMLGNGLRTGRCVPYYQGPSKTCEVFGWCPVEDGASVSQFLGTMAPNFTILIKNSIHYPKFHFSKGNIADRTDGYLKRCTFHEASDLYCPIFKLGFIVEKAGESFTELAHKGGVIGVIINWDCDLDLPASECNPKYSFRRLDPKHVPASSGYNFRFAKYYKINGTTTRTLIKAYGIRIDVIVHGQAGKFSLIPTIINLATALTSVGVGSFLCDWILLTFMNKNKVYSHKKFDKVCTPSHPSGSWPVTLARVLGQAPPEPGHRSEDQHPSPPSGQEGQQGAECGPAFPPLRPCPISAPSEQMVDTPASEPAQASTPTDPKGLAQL

[6] = molecular target: T3, P2X purinoceptor 4 (Homo sapiens) (UniProt Q99571); assay: Antagonist activity at human P2X4 receptor expressed in human 1321N1 cells assessed as reduction in intracellular Ca2+ influx incubated for 30 mins by Fura-2 AM based fluorescence assay relative to control; assay type: cell-based
T3 sequence (whole entry): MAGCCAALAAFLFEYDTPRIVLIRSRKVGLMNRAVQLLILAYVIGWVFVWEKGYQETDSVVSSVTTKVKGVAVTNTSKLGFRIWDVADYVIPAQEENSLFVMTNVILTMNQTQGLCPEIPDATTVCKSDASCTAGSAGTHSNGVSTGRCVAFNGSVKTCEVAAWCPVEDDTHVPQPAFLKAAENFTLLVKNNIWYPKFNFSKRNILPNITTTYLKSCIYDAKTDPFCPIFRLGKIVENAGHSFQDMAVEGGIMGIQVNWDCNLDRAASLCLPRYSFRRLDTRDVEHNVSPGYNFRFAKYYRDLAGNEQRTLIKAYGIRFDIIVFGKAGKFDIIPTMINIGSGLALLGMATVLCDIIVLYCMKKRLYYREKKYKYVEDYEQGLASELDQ

[7] = molecular target: T1, P2X purinoceptor 5; assay: Antagonist activity at human P2X5 receptor expressed in human 1321N1 cells assessed as reduction in intracellular Ca2+ influx incubated for 30 mins by Fura-2 AM based fluorescence assay relative to control; assay type: cell-based
[8] = molecular target: T4, P2X purinoceptor 7 (Homo sapiens) (UniProt Q99572); assay: (§1) Antagonist activity at human P2X7 receptor expressed in human 1321N1 cells assessed as reduction in ethidium bromide dye uptake at 20 uM preincubated for 15 mins followed by BzATP addition and measured after 30 mins by Ethidium bromide dye based fluorescence plate reader analysis relative to control; assay type: cell-based; settings: filed as antagonist, time 45.0 min
T4 sequence (whole entry): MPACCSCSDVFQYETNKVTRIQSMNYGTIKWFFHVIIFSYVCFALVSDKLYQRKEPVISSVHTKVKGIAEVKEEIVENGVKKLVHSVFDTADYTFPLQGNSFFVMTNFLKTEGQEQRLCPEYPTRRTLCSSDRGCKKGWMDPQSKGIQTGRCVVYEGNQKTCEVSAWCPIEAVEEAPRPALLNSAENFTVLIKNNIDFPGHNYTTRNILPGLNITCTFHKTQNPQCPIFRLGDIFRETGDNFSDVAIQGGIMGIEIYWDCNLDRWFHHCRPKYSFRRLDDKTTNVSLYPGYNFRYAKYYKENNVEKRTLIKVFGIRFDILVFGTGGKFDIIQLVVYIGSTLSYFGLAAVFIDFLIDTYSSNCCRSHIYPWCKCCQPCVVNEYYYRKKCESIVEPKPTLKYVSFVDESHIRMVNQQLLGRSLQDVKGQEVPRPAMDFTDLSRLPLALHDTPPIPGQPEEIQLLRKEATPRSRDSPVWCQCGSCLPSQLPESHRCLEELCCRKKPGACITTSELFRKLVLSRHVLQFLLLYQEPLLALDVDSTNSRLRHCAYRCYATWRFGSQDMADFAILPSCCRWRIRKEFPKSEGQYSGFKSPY

[9] = molecular target: T5, P2X purinoceptor 7 (Homo sapiens, UniProt Q99572); assay: Antagonist activity at human P2X7 receptor expressed in human 1321N1 cells assessed as reduction in ethidium bromide dye uptake preincubated for 15 mins followed by BzATP addition and measured after 30 mins by Ethidium bromide dye based fluorescence plate reader analysis; assay type: cell-based
T5 sequence (Q99572 whole entry): T4 sequence (whole entry)

[10] = molecular target: T4, P2X purinoceptor 7 (Homo sapiens); assay: Antagonist activity at human P2X7 receptor expressed in human 1321N1 cells assessed as reduction in intracellular Ca2+ influx incubated for 30 mins by Fura-2 AM based fluorescence assay relative to control; assay type: cell-based
[11] = molecular target: T6, P2X purinoceptor 4 (Homo sapiens, UniProt Q99571); assay: Antagonist activity at human P2X4 receptor expressed in human 1321N1 cells assessed as reduction in intracellular Ca2+ influx incubated for 30 mins by Fura-2 AM based fluorescence assay; assay type: cell-based
T6 sequence (Q99571 whole entry): T3 sequence (whole entry)

[12] = molecular target: T4, P2X purinoceptor 7 (Homo sapiens); assay: Negative allosteric modulation activity at human P2X7 receptor expressed in human 1321N1 cells assessed as ATP induced calcium response by measuring maximal ATP efficacy at 40 nM relative to control; assay type: cell-based; settings: filed as negative allosteric modulator
[13] = molecular target: T4, P2X purinoceptor 7 (Homo sapiens); assay: Negative allosteric modulation activity at human P2X7 receptor expressed in human 1321N1 cells assessed as ATP induced calcium response by measuring maximal ATP efficacy at 100 nM relative to control; assay type: cell-based; settings: filed as negative allosteric modulator
[14] = molecular target: T4, P2X purinoceptor 7 (Homo sapiens); assay: Negative allosteric modulation activity at human P2X7 receptor expressed in human 1321N1 cells assessed as ATP induced calcium response by measuring maximal ATP efficacy at 200 nM relative to control; assay type: cell-based
[15] = molecular target: T4, P2X purinoceptor 7 (Homo sapiens); assay: as §1, with “Negative allosteric modulation” for “Antagonist”; assay type: cell-based; settings: filed as negative allosteric modulator, time 45.0 min
[16] = molecular target: T5, P2X purinoceptor 7; assay: Negative allosteric modulation activity at human P2X7 receptor expressed in human 1321N1 cells assessed as reduction in ethidium bromide dye uptake preincubated for 15 mins followed by BzATP addition and measured after 30 mins by Ethidium bromide dye based fluorescence plate reader analysis; assay type: cell-based
[17] = molecular target: T2, P2X purinoceptor 2 (Homo sapiens); assay: Negative allosteric modulation activity at human P2X2 receptor expressed in human 1321N1 cells assessed as reduction in intracellular Ca2+ influx incubated for 30 mins by Fura-2 AM based fluorescence assay relative to control; assay type: cell-based
[18] = molecular target: T3, P2X purinoceptor 4 (Homo sapiens); assay: Negative allosteric modulation activity at human P2X4 receptor expressed in human 1321N1 cells assessed as reduction in intracellular Ca2+ influx incubated for 30 mins by Fura-2 AM based fluorescence assay relative to control; assay type: cell-based
[19] = molecular target: T1, P2X purinoceptor 5; assay: Negative allosteric modulation activity at human P2X5 receptor expressed in human 1321N1 cells assessed as reduction in intracellular Ca2+ influx incubated for 30 mins by Fura-2 AM based fluorescence assay relative to control; assay type: cell-based
[20] = molecular target: T5, P2X purinoceptor 7; assay: Antagonist activity at human P2X7 receptor expressed in human 1321N1 cells assessed as reduction in intracellular Ca2+ influx incubated for 30 mins by Fura-2 AM based fluorescence assay; assay type: cell-based

Row | inhibition [5] [%] | inhibition [6] [%] | inhibition [7] [%] | inhibition [10] [%] | Structure (SMILES) | inhibition at 50 µM [1] [%] | cytotoxicity at 24 h, 50 µM [2] [%] | inhibition at 50 µM [3] [%] | also measured
1 | – | – | – | – | Cc1ccc(C(=O)Nc2ccc(S(=O)(=O)O)c3cc(S(=O)(=O)O)cc(S(=O)(=O)O)c23)cc1NC(=O)c1cccc(NC(=O)Nc2cccc(C(=O)Nc3cc(C(=O)Nc4ccc(S(=O)(=O)O)c5cc(S(=O)(=O)O)cc(S(=O)(=O)O)c45)ccc3C)c2)c1 [SURAMIN] | 30.6 | 48 | 28.7 | –
2 | – | – | – | – | O=C(NC(=S)Nc1cc(Cl)c(O)c(Cl)c1)C12CC3CC(CC(C3)C1)C2 | 6.18 | 1.06 | 5.4 | IC50 [4]: 12.3 µM
3 | 38 | 33 | 26 | – | O=C(NC(=S)Nc1ccc(O)cc1)C12CC3CC(CC(C3)C1)C2 | 7.21 | 3.02 | 8.66 | Emax [8]: 68%; IC50 [9]: 1.26 µM
4 | – | 32 | 25 | 0 | COc1ccc(NC(=S)NC(=O)C23CC4CC(CC(C4)C2)C3)cc1 | 4.56 | 10.6 | 8.01 | –
5 | – | – | – | – | COc1ccc(NC(=S)NC(=O)C23CC4CC(CC(C4)C2)C3)cc1OC | 13.5 | 7.2 | 14.3 | IC50 [4]: 16.5 µM
6 | 2 | 0 | 5 | 10 | CN(C)CCCNC(=S)NC(=O)C12CC3CC(CC(C3)C1)C2 | 5.45 | 10.4 | 7.21 | –
7 | – | – | 16 | 11 | O=C(NC(=S)Nc1cc(Br)ccc1Br)C12CC3CC(CC(C3)C1)C2 | 7.43 | 10.7 | 4.15 | IC50 [11]: 8.34 µM; inhibition ([5]; filed as antagonist): 41%
8 | – | – | – | – | O=C(NC(=S)Nc1cccc2cccnc12)C12CC3CC(CC(C3)C1)C2 | 9.12 | 5.05 | 6.22 | Emax [12]: 78%; Emax [13]: 59%; Emax [14]: 31%; Emax [15]: 42%; IC50 [16]: 0.068 µM; inhibition [17]: 15%; inhibition [18]: 25%; inhibition [19]: 32%
9 | 33 | 36 | – | 19 | O=C(NC(=S)Nc1cccc(O)c1)C12CC3CC(CC(C3)C1)C2 | 5.67 | 6.95 | 11 | inhibition ([7]; filed as antagonist): 44%
10 | 22 | 35 | 16 | 18 | Cc1cc(Br)ccc1NC(=S)NC(=O)C12CC3CC(CC(C3)C1)C2 | 2.2 | 7.02 | 4.1 | –
11 | 35 | 21 | – | – | O=C(NC(=S)Nc1ccc(Br)cc1)C12CC3CC(CC(C3)C1)C2 | 5.4 | 13.7 | 7.19 | inhibition ([7]; filed as antagonist): 42%
12 | 18 | – | – | – | NS(=O)(=O)c1ccccc1NC(=S)NC(=O)C12CC3CC(CC(C3)C1)C2 | 12.9 | 3.77 | 9.5 | IC50 [11]: 4.19 µM; IC50 [20]: 0.699 µM; inhibition ([7]; filed as antagonist): 43%; Emax [8]: 58%; IC50 [9]: 0.796 µM
13 | 33 | – | – | – | O=C(NC(=S)Nc1ccccc1O)C12CC3CC(CC(C3)C1)C2 | 10.3 | 4.22 | 8.6 | inhibition ([7]; filed as antagonist): 41%
14 | 13 | – | 25 | – | O=C(NC(=S)Nc1cccnc1Cl)C12CC3CC(CC(C3)C1)C2 | 11.4 | 4.95 | 5.21 | Emax [8]: 63%; IC50 [9]: 0.155 µM
15 | 12 | 20 | 15 | 11 | O=C(O)C12CC3CC(CC(C3)C1)C2 | – | – | – | –
16 | 5 | – | 20 | – | O=C(NC(=S)Nc1cc(Br)cc(C(F)(F)F)c1)C12CC3CC(CC(C3)C1)C2 | 5.37 | 6.85 | 11.9 | IC50 [11]: 4.53 µM; IC50 [20]: 4.02 µM
17 | – | – | – | – | Cc1ccc(NC(=S)NC(=O)C23CC4CC(CC(C4)C2)C3)c(Br)c1 | 7.29 | 9.46 | 15.4 | IC50 [4]: 9.04 µM
18 | – | – | 32 | – | O=C(NC(=S)Nc1cc([N+](=O)[O-])ccc1Cl)C12CC3CC(CC(C3)C1)C2 | 10.4 | 6.31 | 8.66 | –
19 | – | 38 | – | 15 | COc1cccc(NC(=S)NC(=O)C23CC4CC(CC(C4)C2)C3)c1 | 6.53 | 13.2 | 7.21 | inhibition ([7]; filed as antagonist): 45%
20 | – | – | – | – | CC(C)c1cc(Br)c(NC(=O)Nc2cccnc2)c(Br)c1 | 20.2 | 2.85 | 9.12 | –

— ChEMBL document CHEMBL5131484, “Design and synthesis of adamantane-1-carbonyl thiourea derivatives as potent and selective inhibitors of h-P2X4 and h-P2X7 receptors: An Emerging therapeutic tool for treatment of inflammation and neurological disorders” (Eur J Med Chem, 2022)
